Target: T1, Serine/threonine-protein kinase/endoribonuclease IRE1 [D688N] (Homo sapiens, UniProt O75460, D688N)
T1 construct: gene ERN1
Experiment: IRE1α TR-FRET Competition Binding Assay
Procedure: To determine the affinity of compound binding to the kinase domain of IRE1 alpha, a Time Resolved Fluorescence Resonance Energy Transfer (TR-FRET) competition assay was used. A His-tagged IRE1 alpha kinase dead construct containing the kinase and RNase domains (KR, AA G547-L977, D688N) was expressed in Sf9 insect cells. The purified protein (final concentration 0.006 μM micromolar) was pre-incubated with anti-His Europium labeled antibody (Life Technologies PV5596, final concentration 0.002 μM micromolar) for one hour at 4° C. in 1X TR-FRET Assay Buffer (50 mM HEPES, pH 7.5.10 mM MgCl2, 0.083 mM Brij 35, 1 mM DTT, and 0.1% bovine gamma globulin) prior to addition to test compounds. A fluorescent labeled probe based on an ATP competitive inhibitor (Kinase Tracer 236, Life Technologies PV5592) is added to a final concentration of 0.1 μM (micromolar). Reactions were carried out for one hour at room temperature in a final volume of 20 μL (microliter) in 384 well white ProxiPlates (Perkin Elmer 6008289). Binding of the tracer to the IRE1 protein alpha was detected in an Envision instrument (PerkinElmer) equipped with a TRF laser option and a LANCE/Delfia Dual/Bias D400/D630 mirror (Ex 347 nm, 1st Em 665 nm, 2nd Em 615 nm).

T1 sequence (O75460 19-977 D688N limits assumed): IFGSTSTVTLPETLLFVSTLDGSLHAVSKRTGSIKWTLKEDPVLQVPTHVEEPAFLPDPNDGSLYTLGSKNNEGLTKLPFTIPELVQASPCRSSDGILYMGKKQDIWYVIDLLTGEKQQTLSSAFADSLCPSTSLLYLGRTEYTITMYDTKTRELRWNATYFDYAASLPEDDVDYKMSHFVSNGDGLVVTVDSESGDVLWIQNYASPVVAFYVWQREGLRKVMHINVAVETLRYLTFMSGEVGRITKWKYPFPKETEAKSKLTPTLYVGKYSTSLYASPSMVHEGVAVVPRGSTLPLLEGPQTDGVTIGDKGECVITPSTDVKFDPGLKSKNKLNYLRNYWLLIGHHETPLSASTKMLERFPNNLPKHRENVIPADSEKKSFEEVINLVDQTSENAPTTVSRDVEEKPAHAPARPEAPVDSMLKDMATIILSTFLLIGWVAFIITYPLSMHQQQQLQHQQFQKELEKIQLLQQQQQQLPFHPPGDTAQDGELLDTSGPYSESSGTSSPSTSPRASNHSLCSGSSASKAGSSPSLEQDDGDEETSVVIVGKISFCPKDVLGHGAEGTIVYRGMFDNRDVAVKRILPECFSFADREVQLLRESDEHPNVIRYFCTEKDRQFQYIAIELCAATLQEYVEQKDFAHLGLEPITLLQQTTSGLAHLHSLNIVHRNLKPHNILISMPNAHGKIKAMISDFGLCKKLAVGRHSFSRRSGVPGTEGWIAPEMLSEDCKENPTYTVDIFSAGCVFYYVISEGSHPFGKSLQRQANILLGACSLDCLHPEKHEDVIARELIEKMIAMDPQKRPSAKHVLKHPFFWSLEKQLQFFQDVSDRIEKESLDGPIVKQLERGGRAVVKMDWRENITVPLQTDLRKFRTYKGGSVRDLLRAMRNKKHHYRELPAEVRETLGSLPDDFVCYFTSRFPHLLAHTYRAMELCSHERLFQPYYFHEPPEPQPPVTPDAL

| IC50 | SMILES |
| --- | --- |
| 4.8 nM | O=S(=O)(Nc1ccc(Oc2ncccc2-c2ccnc(N[C@H]3CCCNC3)n2)c(F)c1F)c1ccccc1Cl [US12071425, Compound 227] |
| 2.6 nM | O=S(=O)(CC(F)(F)F)Nc1c(F)cc(Oc2ncccc2-c2ccnc(N[C@@H]3CNC[C@@H](F)C3)n2)c(F)c1F [US12071425, Compound 260] |
| 2 nM | CN(C)[C@H]1CC[C@H](Nc2nccc(-c3cccnc3Oc3cc(F)c(NS(=O)(=O)CCC(F)(F)F)c(F)c3F)n2)CC1 [US12071425, Compound 382] |
